Measured values as given in ChEMBL document CHEMBL6109144, “Discovery of New Difluorocyclobutyl Derivatives as Effective Glucagon-Like Peptide-1 Receptor Agonists with Reduced hERG Inhibitory Activities” (J Med Chem, 2025).

Assays:
[1] = biological target: Glucagon-like peptide 1 receptor (Homo sapiens, UniProt P43220); assay: Agonist activity at N-terminal hemagglutinin-tagged human GLP-1R expressed in CHO cells co-transfected with pcDNA3.0 assessed as increase in intracellular cAMP accumulation incubated for 30 mins by microplate reader analysis; format: functional, cell-based
hERG (KCNH2) [2] = biological target: T1, hERG (KCNH2) (Homo sapiens, UniProt Q12809); assay: Inhibition of hERG at 10 uM at -80 mV holding potential by whole-cell patch clamp analysis relative to control; format: toxicity
[3] = Cmax in Sprague-Dawley rat at 5 mg/kg, po measured up to 24 hrs by LC-MS/MS analysis; format: ADME, organism-based; settings: in vivo
[4] = Fraction of the dose absorbed in Sprague-Dawley rat at 5 mg/kg, po measured up to 24 hrs by LC-MS/MS analysis; format: ADME, organism-based; settings: in vivo, read-out: Fabs
[5] = Observed apparent oral clearance in Sprague-Dawley rat at 5 mg/kg, po measured up to 24 hrs by LC-MS/MS analysis; format: ADME, organism-based; settings: in vivo
in vivo = settings: Sprague-Dawley, rat, po, 5 mg/kg
[6] = AUC (0 to infinity) in Sprague-Dawley rat at 5 mg/kg, po measured up to 24 hrs by LC-MS/MS analysis; format: ADME, organism-based; settings: in vivo
[7] = Half life in Sprague-Dawley rat at 5 mg/kg, po measured up to 24 hrs by LC-MS/MS analysis; format: ADME, organism-based; settings: in vivo
hERG (KCNH2) [8] = biological target: T1, hERG (KCNH2); assay: Inhibition of hERG at 1 uM at -80 mV holding potential by whole-cell patch clamp analysis relative to control; format: toxicity

Chain of Glucagon-like peptide 1 receptor (P43220 whole entry): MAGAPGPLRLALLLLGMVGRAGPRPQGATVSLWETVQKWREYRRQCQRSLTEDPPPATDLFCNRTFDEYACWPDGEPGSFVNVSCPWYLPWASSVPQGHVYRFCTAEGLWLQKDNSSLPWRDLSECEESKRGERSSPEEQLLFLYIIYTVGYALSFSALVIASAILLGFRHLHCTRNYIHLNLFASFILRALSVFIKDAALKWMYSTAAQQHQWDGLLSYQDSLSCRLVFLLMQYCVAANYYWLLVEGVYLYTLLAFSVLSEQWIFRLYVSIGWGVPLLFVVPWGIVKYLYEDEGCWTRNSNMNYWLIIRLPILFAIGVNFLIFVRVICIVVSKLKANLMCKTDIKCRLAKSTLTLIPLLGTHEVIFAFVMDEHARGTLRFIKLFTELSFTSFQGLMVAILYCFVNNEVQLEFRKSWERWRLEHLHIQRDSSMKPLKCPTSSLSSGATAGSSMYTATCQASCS
T1 sequence (Q12809 whole entry): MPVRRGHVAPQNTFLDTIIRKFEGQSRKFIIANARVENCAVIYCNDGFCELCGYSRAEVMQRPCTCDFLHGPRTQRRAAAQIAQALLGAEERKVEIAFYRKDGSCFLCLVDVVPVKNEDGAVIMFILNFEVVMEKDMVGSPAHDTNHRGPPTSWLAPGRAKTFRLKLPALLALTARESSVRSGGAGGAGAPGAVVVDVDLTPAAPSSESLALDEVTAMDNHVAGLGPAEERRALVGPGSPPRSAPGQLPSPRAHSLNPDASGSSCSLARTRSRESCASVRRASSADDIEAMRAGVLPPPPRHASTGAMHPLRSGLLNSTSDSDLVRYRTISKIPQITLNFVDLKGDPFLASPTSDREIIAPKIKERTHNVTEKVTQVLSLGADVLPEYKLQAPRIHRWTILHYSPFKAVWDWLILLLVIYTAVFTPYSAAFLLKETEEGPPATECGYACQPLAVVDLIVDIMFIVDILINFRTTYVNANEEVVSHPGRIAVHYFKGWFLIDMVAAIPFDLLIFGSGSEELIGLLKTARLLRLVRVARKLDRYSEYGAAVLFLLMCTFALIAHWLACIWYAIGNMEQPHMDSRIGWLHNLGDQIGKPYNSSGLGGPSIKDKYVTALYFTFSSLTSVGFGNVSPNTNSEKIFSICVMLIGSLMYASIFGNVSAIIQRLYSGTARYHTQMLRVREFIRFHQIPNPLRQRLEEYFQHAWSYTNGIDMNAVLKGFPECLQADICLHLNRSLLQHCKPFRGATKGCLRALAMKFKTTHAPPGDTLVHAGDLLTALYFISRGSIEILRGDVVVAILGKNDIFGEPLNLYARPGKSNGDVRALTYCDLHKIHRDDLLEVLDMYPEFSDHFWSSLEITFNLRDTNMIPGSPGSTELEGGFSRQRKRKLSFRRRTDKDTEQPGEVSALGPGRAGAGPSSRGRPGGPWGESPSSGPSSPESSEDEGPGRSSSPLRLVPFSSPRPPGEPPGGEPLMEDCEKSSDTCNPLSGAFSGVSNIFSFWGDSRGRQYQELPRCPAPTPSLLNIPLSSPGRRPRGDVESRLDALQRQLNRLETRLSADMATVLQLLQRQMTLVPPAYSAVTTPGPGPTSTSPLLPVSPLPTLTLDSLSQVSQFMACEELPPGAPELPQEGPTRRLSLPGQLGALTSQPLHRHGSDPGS

SMILES	EC50 [1]	other results
COc1ccc(C(F)(F)F)cc1OCc1nccc(OC2CCN(Cc3nc4sc(C(=O)O)cc4n3C[C@@H]3CCO3)CC2)n1	19.4 nM	
N#Cc1ccc(Cc2cccc(OC3CCN(Cc4nc5ccc(C(=O)O)cc5n4C[C@@H]4CCO4)CC3)n2)c(F)c1	1.14 nM	
Cn1ncc2ccc(Cc3cccc(OC4CCN(Cc5nc6sc(C(=O)O)cc6n5C[C@@H]5CCO5)CC4)n3)c(F)c21	77.1 nM	
CC1(c2ccc(COc3cccc(C4=CCN(Cc5nc6ccc(C(=O)O)cc6n5C[C@@H]5CCO5)CC4)n3)c(F)c2)CC(F)(F)C1	6.1 nM	
N#Cc1ccc(COc2cccc(OC3CCN(Cc4nc5sc(C(=O)O)cc5n4C[C@@H]4CCO4)CC3)n2)c(F)c1	9.83 nM	
O=C(O)c1cc2c(nc(CN3CCC(Oc4cccc(Cc5ccc6cn[nH]c6c5F)n4)CC3)n2C[C@@H]2CCO2)s1	176 nM	
O=C(O)c1cc2c(nc(CN3CCC(Oc4cccc(Cc5ccc(Cl)cc5)n4)CC3)n2C[C@@H]2CCO2)s1	2.66 nM	
Cc1nn(C)c2c(F)c(Cc3cccc(OC4CCN(Cc5nc6ccc(C(=O)O)nc6n5C[C@@H]5CCO5)CC4)n3)ccc12	1.74 nM	
O=C(O)c1cc2c(nc(CN3CCC(Oc4cccc(Cc5ccccc5)n4)CC3)n2C[C@@H]2CCO2)s1	87.7 nM	
Cn1ncc2ccc(Cc3cccc(OC4CCN(Cc5nc6c(F)cc(C(=O)O)cc6n5C[C@@H]5CCO5)CC4)n3)c(F)c21	0.96 nM	
CC1(c2ccc(COc3cccc(C4=CCN(Cc5nc6ccc(C(=O)O)nc6n5C[C@@H]5CCO5)CC4)n3)c(F)c2)CC(F)(F)C1	2.91 nM	
N#Cc1ccc(Cc2cccc(OC3CCN(Cc4nc5sc(C(=O)O)cc5n4C[C@@H]4CCO4)CC3)n2)c2occc12	96.8 nM	
Cn1ccc(-c2ccc(Cc3cccc(OC4CCN(Cc5nc6sc(C(=O)O)cc6n5C[C@@H]5CCO5)CC4)n3)cc2)n1	661 nM	
O=C(O)c1cc2c(nc(CN3CCC(Oc4cccc(OCc5ccc(Cl)cc5)n4)CC3)n2C[C@@H]2CCO2)s1	9.53 nM	
CC1(c2ccc(COc3cccc(-c4ccc(Cc5nc6ccc(C(=O)O)cc6n5C[C@@H]5CCO5)c(F)c4)n3)c(F)c2)CC(F)(F)C1	3.1 nM	
N#Cc1ccc(Cc2cccc(OC3CCN(Cc4nc5ccc(C(=O)O)nc5n4C[C@@H]4CCO4)CC3)n2)c2occc12	7.91 nM	
O=C(O)c1cc2c(nc(CN3CCC(Oc4cccc(Cc5ccc(-c6ccn(C(F)F)n6)cc5)n4)CC3)n2C[C@@H]2CCO2)s1	16.9 nM	
O=C(O)c1cc2c(nc(CN3CCC(Oc4cccc(COc5ccc(Cl)cc5)n4)CC3)n2C[C@@H]2CCO2)s1	0.91 nM	

SMILES	EC50 [1]	other results
COc1ccc(Cc2cccc(OC3CCN(Cc4nc5sc(C(=O)O)cc5n4C[C@@H]4CCO4)CC3)n2)cc1	20.4 nM	
O=C(O)c1cc2c(nc(CN3CCC(Oc4cccc(Cc5ccc(Cl)c6ccoc56)n4)CC3)n2C[C@@H]2CCO2)s1	70 nM	
Cn1ncc2ccc(Cc3cccc(OC4CCN(Cc5nc6sc(C(=O)O)cc6n5C[C@@H]5CCO5)CC4)n3)cc21	258 nM	
Cn1ncc2ccc(Cc3cccc(OC4CCN(Cc5nc6ccc(C(=O)O)nc6n5C[C@@H]5CCO5)CC4)n3)c(F)c21	102 nM	
O=C(O)c1cc2c(nc(CN3CCC(Oc4ccnc(Cc5ccc(Cl)c6ccoc56)n4)CC3)n2C[C@@H]2CCO2)s1	1.84 nM	
O=C(O)c1cc2c(nc(CN3CCC(Oc4cccc(Cc5ccccc5F)n4)CC3)n2C[C@@H]2CCO2)s1	81 nM	
O=C(O)c1ccc2nc(CN3CCC(Oc4cccc(Cc5ccc(C6COC6)cc5)n4)CC3)n(C[C@@H]3CCO3)c2n1	55.7 nM	
O=C(O)c1ccc2nc(CN3CCC(Oc4cccc(Cc5ccc6cnn(CC(F)F)c6c5F)n4)CC3)n(C[C@@H]3CCO3)c2n1	3.36 nM	
O=C(O)c1cc2c(nc(CN3CCC(Oc4ccnc(COc5ccc(Cl)cc5)n4)CC3)n2C[C@@H]2CCO2)s1	3.7 nM	
O=C(O)c1ccc2nc(CN3CCC(Oc4cccc(COc5cc(Cl)c6occc6c5)n4)CC3)n(C[C@@H]3CCO3)c2n1	3.62 nM	
O=C(O)c1ccc2nc(CN3CCC(Oc4cccc(Cc5ccc6cn[nH]c6c5F)n4)CC3)n(C[C@@H]3CCO3)c2n1	46.8 nM	
O=C(O)c1cc2c(nc(CN3CCC(Oc4nccc(Cc5ccc(Cl)cc5)n4)CC3)n2C[C@@H]2CCO2)s1	396 nM	
N#Cc1ccc(Cc2cccc(OC3CCN(Cc4nc5sc(C(=O)O)cc5n4C[C@@H]4CCO4)CC3)n2)cc1	5.47 nM	
O=C(O)c1cc2c(nc(CN3CCC(Oc4cccc(COc5ccc(Cl)cc5F)n4)CC3)n2C[C@@H]2CCO2)s1	1.76 nM	
O=C(O)c1cc2c(nc(CN3CCC(Oc4cccc(Cc5ccc(Cl)cc5F)n4)CC3)n2C[C@@H]2CCO2)s1	3.75 nM	
CC1(c2ccc(COc3cccc(-c4ccc(Cc5nc6ccc(C(=O)O)nc6n5C[C@@H]5CCO5)c(F)c4)n3)c(F)c2)CC(F)(F)C1	2.64 nM	
O=C(O)c1cc2c(nc(CN3CCC(Oc4cccc(Cc5ccc6cnn(CC(F)F)c6c5)n4)CC3)n2C[C@@H]2CCO2)s1	14.6 nM	
N#Cc1ccc(Cc2cccc(OC3CCN(Cc4nc5sc(C(=O)O)cc5n4C[C@@H]4CCO4)CC3)n2)c(F)c1	9.81 nM	

Stronger by EC50 [1], values ahead:

EC50 [1]	SMILES	other results
0.8 nM	Cn1nc(Cl)c2ccc(OCc3cccc(OC4CCN(Cc5nc6ccc(C(=O)O)nc6n5C[C@@H]5CCO5)CC4)n3)c(F)c21	
0.026 nM	O=C(O)c1cc(F)c2nc(CN3CCC(c4cccc(OCc5ccc(C6CC(F)(F)C6)cc5F)n4)CC3)n(C[C@@H]3CCO3)c2c1	inhibition at 10 µM (hERG (KCNH2) [2]): 101%; Cmax [3]: 65.6 ng/mL; Fa at 24 h [4]: 6.7%; CL/F [5]: 375 mL/min/kg; Tmax at 24 h (in vivo): 2 h; AUC(0-inf) [6]: 229 ng·h/mL; half-life [7]: 2.3 h
0.84 nM	O=C(O)c1ccc2nc(CN3CCC(Oc4cccc(COc5ccc6cn[nH]c6c5)n4)CC3)n(C[C@@H]3CCO3)c2n1	
0.2 nM	O=C(O)c1cc2c(nc(CN3CCC(Oc4ccnc(COc5ccc(Cl)cc5F)n4)CC3)n2C[C@@H]2CCO2)s1	
0.45 nM	COc1cc(C#N)ccc1OCc1nccc(OC2CCN(Cc3nc4sc(C(=O)O)cc4n3C[C@@H]3CCO3)CC2)n1	
0.13 nM	O=C(O)c1ccc2nc(CN3CC=C(c4cccc(OCc5ccc(CC(F)(F)F)cc5F)n4)CC3)n(C[C@@H]3CCO3)c2n1	
0.015 nM	O=C(O)c1cc(F)c2nc(CN3CC=C(c4cccc(OCc5ccc(CC(F)F)cc5F)n4)CC3)n(C[C@@H]3CCO3)c2c1	
0.096 nM	O=C(O)c1cc(F)c2nc(CN3CC=C(c4cccc(OCc5ccc(CC(F)(F)F)cc5F)n4)CC3)n(C[C@@H]3CCO3)c2c1	
0.016 nM	COc1cc(C(=O)O)cc2c1nc(CN1CCC(c3cccc(OCc4ccc(C5CC(F)(F)C5)cc4F)n3)CC1)n2C[C@@H]1CCO1	Cmax [3]: 20.2 ng/mL; Fa at 24 h [4]: 1.99%; CL/F [5]: 1490 mL/min/kg; Tmax at 24 h (in vivo): 1.67 h; AUC(0-inf) [6]: 61.8 ng·h/mL; half-life [7]: 1.5 h
0.086 nM	O=C(O)c1cc(F)c2nc(CN3CCN(c4cccc(OCc5ccc(CC(F)F)cc5F)n4)CC3)n(C[C@@H]3CCO3)c2c1	
0.096 nM	O=C(O)c1cc(F)c2nc(CN3CCC(c4cccc(OCc5ccc(CC(F)F)cc5F)n4)CC3)n(C[C@@H]3CCO3)c2c1	
0.21 nM	O=C(O)c1ccc2nc(CN3CCC(Oc4cccc(COc5ccc(Cl)c6cc(F)oc56)n4)CC3)n(C[C@@H]3CCO3)c2c1	
0.52 nM	N#Cc1ccc(OCc2cccc(OC3CCN(Cc4nc5sc(C(=O)O)cc5n4C[C@@H]4CCO4)CC3)n2)c(F)c1	inhibition at 10 µM (hERG (KCNH2) [2]): 0.9%
0.11 nM	O=C(O)c1ccc2nc(CN3CCC(Oc4cccc(Cc5ccc(Cl)c6c5OCC6)n4)CC3)n(C[C@@H]3CCO3)c2c1	
0.34 nM	O=C(O)c1ccc2nc(CN3CCC(Oc4ccnc(Cc5ccc(Cl)c6ccoc56)n4)CC3)n(C[C@@H]3CCO3)c2n1	
0.13 nM	O=C(O)c1ccc2nc(CN3CC=C(c4cccc(OCc5ccc(CC(F)F)cc5F)n4)CC3)n(C[C@@H]3CCO3)c2n1	
0.32 nM	N#Cc1ccc(OCc2nccc(OC3CCN(Cc4nc5sc(C(=O)O)cc5n4C[C@@H]4CCO4)CC3)n2)c(F)c1	
0.32 nM	O=C(O)c1ccc2nc(CN3CCC(Oc4cccc(COc5ccc6c(Cl)nn(CC(F)F)c6c5F)n4)CC3)n(C[C@@H]3CCO3)c2n1	
0.35 nM	O=C(O)c1ccc2nc(CN3CCC(Oc4cccc(Cc5ccc(Cl)c6occc56)n4)CC3)n(C[C@@H]3CCO3)c2n1	
0.062 nM	O=C(O)c1ccc2nc(CN3CCC(Oc4cccc(COc5ccc(Cl)c6ccoc56)n4)CC3)n(C[C@@H]3CCO3)c2n1	inhibition at 10 µM (hERG (KCNH2) [2]): 9.8%; Cmax [3]: 116 ng/mL; Fa at 24 h [4]: 13.4%; inhibition at 1 µM (hERG (KCNH2) [8]): 1%; CL/F [5]: 448 mL/min/kg; Tmax at 24 h (in vivo): 0.5 h; AUC(0-inf) [6]: 204 ng·h/mL
0.35 nM	O=C(O)c1cc(F)c2nc(CN3CCC(c4cccc(OCc5ccc(CC(F)(F)F)cc5F)n4)CC3)n(C[C@@H]3CCO3)c2c1	
0.2 nM	COc1cc2c(Cl)ccc(OCc3cccc(OC4CCN(Cc5nc6ccc(C(=O)O)cc6n5C[C@@H]5CCO5)CC4)n3)c2o1	
0.79 nM	O=C(O)c1cc2c(nc(CN3CCC(Oc4ccnc(Cc5ccc(Cl)cc5)n4)CC3)n2C[C@@H]2CCO2)s1	
0.07 nM	C[C@H]1CN(c2cccc(OCc3ccc(CC(F)F)cc3F)n2)CCN1Cc1nc2c(F)cc(C(=O)O)cc2n1C[C@@H]1CCO1	
0.088 nM	O=C(O)c1ccc2nc(CN3CCC(c4cccc(OCc5ccc(C6CC(F)(F)C6)cc5F)n4)CC3)n(C[C@@H]3CCO3)c2c1	
0.46 nM	N#Cc1ccc(OCc2cccc(OC3CCN(Cc4nc5ccc(C(=O)O)cc5n4C[C@@H]4CCO4)CC3)n2)c(OC(F)(F)F)c1	
0.26 nM	O=C(O)c1ccc2nc(CN3CCC(c4cccc(OCc5ccc(CC(F)F)cc5F)n4)CC3)n(C[C@@H]3CCO3)c2c1	
